Laboratory results published in patent US5474993A, “Lactam inhibitors of cholesterol esterase” (Sterling Winthrop, Inc., priority 1994, dated 1995).

Target: T1, pancreatic cholesterol esterase (PCEH) (Homo sapiens, UniProt P19835)
T1 sequence (P19835 21-753): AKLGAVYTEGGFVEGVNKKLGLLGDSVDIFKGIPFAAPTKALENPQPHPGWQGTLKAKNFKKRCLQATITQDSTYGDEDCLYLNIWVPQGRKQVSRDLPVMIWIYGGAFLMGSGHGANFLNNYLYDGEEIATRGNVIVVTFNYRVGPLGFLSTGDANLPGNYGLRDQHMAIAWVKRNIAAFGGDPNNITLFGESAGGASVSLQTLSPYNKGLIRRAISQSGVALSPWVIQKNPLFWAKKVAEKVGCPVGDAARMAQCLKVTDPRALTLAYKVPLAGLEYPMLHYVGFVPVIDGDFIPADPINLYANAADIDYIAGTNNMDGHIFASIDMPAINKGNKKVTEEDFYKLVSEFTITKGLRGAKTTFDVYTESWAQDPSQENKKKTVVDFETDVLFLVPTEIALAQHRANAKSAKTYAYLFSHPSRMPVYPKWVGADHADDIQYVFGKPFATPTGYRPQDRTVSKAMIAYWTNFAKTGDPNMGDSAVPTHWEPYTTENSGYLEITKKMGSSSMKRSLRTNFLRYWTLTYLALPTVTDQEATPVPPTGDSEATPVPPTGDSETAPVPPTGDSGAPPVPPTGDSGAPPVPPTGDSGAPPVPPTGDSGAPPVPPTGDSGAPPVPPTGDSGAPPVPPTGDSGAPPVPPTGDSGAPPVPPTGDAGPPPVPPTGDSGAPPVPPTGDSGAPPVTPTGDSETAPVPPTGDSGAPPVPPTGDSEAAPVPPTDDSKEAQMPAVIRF
Test: KM estimation for PNPA substrate
Format: biochemical
Details: nonlinear fit to the rate-progress curve
Protocol: Purified pancreatic cholesterol esterase or ester hydrolase (PCH), shown by SDS-acrylamide and isoelectric focusing electrophoresis to be homogeneous,is used in a fresh solution of 90 mM (PNPA) in methanol.
First an initial screen is conducted as follows: to determine the effect of an inhibitor on the rate of enzyme catalyzed hydrolysis of PNPA, enzyme and inhibitor are first incubated at room temperature for ten minutes. Following incubation, enough PNPA substrate to give a final concentration of 0.225 mM is added. The rate of PNPA hydrolysis is monitored by observing an increase of absorption at 405 nm over the course of ten minutes. On average, the concentration of inhibitor is 1300-fold greater than that of the enzyme inhibitor concentrate. The maximum solubility of PNPA of approximately twice the value of Km, limited the accuracy the KM determination for the PNPA substrate. The estimated KM based on a nonlinear fit to the rate-progress curve is KM ~1 mM. With this estimate the substrate concentration used in the screen was approximately 0.25 KM.

estimated KM: ~ 1 mM
Compound: CC(=O)Oc1ccc([N+](=O)[O-])cc1 [PNPA, p-nitrophenyl acetate]
